Assay results taken from patent publication US11878965B2, “Inhibitors of peptidylarginine deiminases” (Gilead Sciences, Inc., priority 2020, dated 2024).

Biological target: human PAD4 (Homo sapiens (Human), UniProt Q9UM07)
Experiment: In Vitro PAD4 BAEE Biochemical Assay
Details: human PAD4, BAEE substrate; 5 nM PAD4, 2 mM calcium chloride, 3 mM BAEE; geometric mean of multiple experiments
In short: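 Recombinant human PAD4 (His-SUMO tag removed, E. coli-expressed), 5 nM, preincubated with compound and 2 mM CaCl2 30 min at 25 °C in MOPS pH 7.6 with DTT; 3 mM BAEE added for 2 h at 25 °C, EDTA stop. Released ammonia detected by o-phthalaldehyde/DTT fluorescence (ex 405, em 535 nm).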

human PAD4, sequence (Q9UM07 2-663): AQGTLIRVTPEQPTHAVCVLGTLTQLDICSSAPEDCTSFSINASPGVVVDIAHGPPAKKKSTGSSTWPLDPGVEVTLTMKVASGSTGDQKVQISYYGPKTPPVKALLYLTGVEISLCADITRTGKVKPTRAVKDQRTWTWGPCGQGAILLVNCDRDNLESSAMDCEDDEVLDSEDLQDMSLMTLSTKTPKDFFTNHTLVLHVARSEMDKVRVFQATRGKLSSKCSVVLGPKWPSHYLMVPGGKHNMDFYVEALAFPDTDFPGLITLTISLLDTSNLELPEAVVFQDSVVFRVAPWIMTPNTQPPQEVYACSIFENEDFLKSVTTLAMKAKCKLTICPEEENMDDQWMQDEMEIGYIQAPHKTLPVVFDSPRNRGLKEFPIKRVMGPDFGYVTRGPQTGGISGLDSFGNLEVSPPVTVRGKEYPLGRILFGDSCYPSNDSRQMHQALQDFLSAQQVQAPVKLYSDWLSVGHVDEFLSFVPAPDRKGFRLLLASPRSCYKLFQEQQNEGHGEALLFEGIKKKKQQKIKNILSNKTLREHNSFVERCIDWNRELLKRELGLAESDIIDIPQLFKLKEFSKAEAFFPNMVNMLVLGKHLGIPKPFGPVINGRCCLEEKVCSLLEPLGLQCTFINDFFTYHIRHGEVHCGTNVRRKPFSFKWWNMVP

Row | SMILES | IC50 [nM]
1 | COc1cc(C(=O)N2CCC[C@@H](N)C2)cc2nc(-c3cc4ccc(S(=O)(=O)C(C)C)nc4n3CC3CC3)n(C)c12 [Example 254, (R)-(3-aminopiperidin-1-yl)(2-(1-(cyclopropylmethyl)-6-(isopropylsulfonyl)-1H-pyrrolo[2,3-b]pyridin-2-yl)-7-methoxy-1-methyl-1H-benzo[d]imidazol-5-yl)methanone] | 550
2 | COc1cc(C(=O)N2[C@H]3CC[C@@H]2[C@H](N)C3)cc2nc(-c3cc4ccc(-n5c(C)cccc5=O)nc4n3CC3CC3)n(C)c12 [Example 255, 1-(2-(5-((1R,2R,4S)-2-amino-7-azabicyclo[2.2.1]heptane-7-carbonyl)-7-methoxy-1-methyl-1H-benzo[d]imidazol-2-yl)-1-(cyclopropylmethyl)-1H-pyrrolo[2,3-b]pyridin-6-yl)-6-methylpyridin-2(1H)-one] | 40.2
3 | COc1cc(C(=O)N2C[C@H](N)CC[C@@H]2C)cc2nc(-c3cc4ccc(-c5ccc(N6CCC6)nc5C)nc4n3CC3CC3)n(C)c12 [Example 260, ((2S,5R)-5-amino-2-methylpiperidin-1-yl)(2-(6-(6-(azetidin-1-yl)-2-methylpyridin-3-yl)-1-(cyclopropylmethyl)-1H-pyrrolo[2,3-b]pyridin-2-yl)-7-methoxy-1-methyl-1H-benzo[d]imidazol-5-yl)methanone] | 364
4 | COc1cc(C(=O)N2C[C@H](N)CC[C@@H]2C)cc2nc(-c3cc4ccc(-c5cccnc5N5CCOCC5)nc4n3CC3CC3)n(C)c12 [Example 261, ((2S,5R)-5-amino-2-methylpiperidin-1-yl)(2-(1-(cyclopropylmethyl)-6-(2-morpholinopyridin-3-yl)-1H-pyrrolo[2,3-b]pyridin-2-yl)-7-methoxy-1-methyl-1H-benzo[d]imidazol-5-yl)methanone] | 457
5 | COc1cc(C(=O)N2C[C@H](N)CC[C@@H]2C)cc2nc(-c3cc4ccc(-c5cccnc5N5CCNCC5)nc4n3CC3CC3)n(C)c12 [Example 264, ((2S,5R)-5-amino-2-methylpiperidin-1-yl)(2-(1-(cyclopropylmethyl)-6-(2-(piperazin-1-yl)pyridin-3-yl)-1H-pyrrolo[2,3-b]pyridin-2-yl)-7-methoxy-1-methyl-1H-benzo[d]imidazol-5-yl)methanone] | 1870
6 | COc1cc(C(=O)N2C[C@H](N)CC[C@@H]2C)cc2nc(-c3cc4ccc(-c5cccnc5-c5cncnc5)nc4n3CC3CC3)n(C)c12 [Example 266, ((2S,5R)-5-amino-2-methylpiperidin-1-yl)(2-(1-(cyclopropylmethyl)-6-(2-(pyrimidin-5-yl)pyridin-3-yl)-1H-pyrrolo[2,3-b]pyridin-2-yl)-7-methoxy-1-methyl-1H-benzo[d]imidazol-5-yl)methanone] | 346
7 | COc1cc(C(=O)N2C[C@H](N)CC[C@@H]2C)cc2nc(-c3cc4ccc(-c5c(C)ccnc5-c5cnc(C)s5)nc4n3CC3CC3)n(C)c12 [Example 268, ((2S,5R)-5-amino-2-methylpiperidin-1-yl)(2-(1-(cyclopropylmethyl)-6-(4-methyl-2-(2-methylthiazol-5-yl)pyridin-3-yl)-1H-pyrrolo[2,3-b]pyridin-2-yl)-7-methoxy-1-methyl-1H-benzo[d]imidazol-5-yl)methanone] | 386
8 | COc1cc(C(=O)N2C[C@H](N)CC[C@@H]2C)cc2nc(-c3cc4ccc(-c5c(C)ccnc5-c5sc(C)nc5C)nc4n3CC3CC3)n(C)c12 [Example 269, ((2S,5R)-5-amino-2-methylpiperidin-1-yl)(2-(1-(cyclopropylmethyl)-6-(2-(2,4-dimethylthiazol-5-yl)-4-methylpyridin-3-yl)-1H-pyrrolo[2,3-b]pyridin-2-yl)-7-methoxy-1-methyl-1H-benzo[d]imidazol-5-yl)methanone] | 324
9 | COc1cc(C(=O)N2CCC[C@@H](N)C2)cc2nc(-c3cc4ccc(-c5cccnc5-c5csc(N6CCCCC6)n5)nc4n3CC3CC3)n(C)c12 [Example 270, (R)-(3-aminopiperidin-1-yl)(2-(1-(cyclopropylmethyl)-6-(2-(2-(piperidin-1-yl)thiazol-4-yl)pyridin-3-yl)-1H-pyrrolo[2,3-b]pyridin-2-yl)-7-methoxy-1-methyl-1H-benzo[d]imidazol-5-yl)methanone] | 351
10 | CCc1nc(C)c(-c2ncccc2-c2ccc3cc(-c4nc5cc(C(=O)N6CCC[C@@H](N)C6)cc(OC)c5n4C)n(CC4CC4)c3n2)s1 [Example 271, (R)-(3-aminopiperidin-1-yl)(2-(1-(cyclopropylmethyl)-6-(2-(2-ethyl-4-methylthiazol-5-yl)pyridin-3-yl)-1H-pyrrolo[2,3-b]pyridin-2-yl)-7-methoxy-1-methyl-1H-benzo[d]imidazol-5-yl)methanone] | 134
11 | COc1cc(C(=O)N2C[C@H](N)CC[C@@H]2C)cc2nc(-c3cc4ccc(N5CCCCC5=O)nc4n3CC3CC3)n(C)c12 [Example 272, 1-(2-(5-((2S,5R)-5-amino-2-methylpiperidine-1-carbonyl)-7-methoxy-1-methyl-1H-benzo[d]imidazol-2-yl)-1-(cyclopropylmethyl)-1H-pyrrolo[2,3-b]pyridin-6-yl)piperidin-2-one] | 785
12 | COc1cc(C(=O)N2C[C@H](N)CC[C@@H]2C)cc2nc(-c3cc4ccc(-c5sc(C(C)C)nc5C)nc4n3CC3CC3)n(C)c12 [Example 274, ((2S,5R)-5-amino-2-methylpiperidin-1-yl)(2-(1-(cyclopropylmethyl)-6-(2-isopropyl-4-methylthiazol-5-yl)-1H-pyrrolo[2,3-b]pyridin-2-yl)-7-methoxy-1-methyl-1H-benzo[d]imidazol-5-yl)methanone] | 4910
13 | COc1cc(C(=O)N2C[C@H](N)CC[C@@H]2C)cc2nc(-c3cc4ccc(-c5ccc6nnnn6c5C)nc4n3CC3CC3)n(C)c12 [Example 275, ((2S,5R)-5-amino-2-methylpiperidin-1-yl)(2-(1-(cyclopropylmethyl)-6-(5-methyltetrazolo[1,5-a]pyridin-6-yl)-1H-pyrrolo[2,3-b]pyridin-2-yl)-7-methoxy-1-methyl-1H-benzo[d]imidazol-5-yl)methanone] | 658

Further lines, results first:

Row | IC50 [nM] | SMILES
14 | 1330 | COc1cc(C(=O)N2C[C@H](N)CC[C@@H]2C)cc2nc(-c3cc4ccc(-c5cc6cn[nH]c6cc5C)nc4n3CC3CC3)n(C)c12 [Example 256, ((2S,5R)-5-amino-2-methylpiperidin-1-yl)(2-(1-(cyclopropylmethyl)-6-(6-methyl-1H-indazol-5-yl)-1H-pyrrolo[2,3-b]pyridin-2-yl)-7-methoxy-1-methyl-1H-benzo[d]imidazol-5-yl)methanone]
15 | 1360 | COc1cc(C(=O)N2C[C@H](N)CC[C@@H]2C)cc2nc(-c3cc4ccc(-c5ccc6[nH]ncc6c5C)nc4n3CC3CC3)n(C)c12 [Example 257, ((2S,5R)-5-amino-2-methylpiperidin-1-yl)(2-(1-(cyclopropylmethyl)-6-(4-methyl-1H-indazol-5-yl)-1H-pyrrolo[2,3-b]pyridin-2-yl)-7-methoxy-1-methyl-1H-benzo[d]imidazol-5-yl)methanone]
16 | 1830 | COc1cc(C(=O)N2C[C@H](N)CC[C@@H]2C)cc2nc(-c3cc4ccc(-c5cccc6c5NC(=O)C6)nc4n3CC3CC3)n(C)c12 [Example 259, 7-(2-(5-((2S,5R)-5-amino-2-methylpiperidine-1-carbonyl)-7-methoxy-1-methyl-1H-benzo[d]imidazol-2-yl)-1-(cyclopropylmethyl)-1H-pyrrolo[2,3-b]pyridin-6-yl)indolin-2-one]
17 | 584 | COc1cc(C(=O)N2C[C@H](N)CC[C@@H]2C)cc2nc(-c3cc4ccc(-c5cccc6c5CNC6=O)nc4n3CC3CC3)n(C)c12 [Example 262, 4-(2-(5-((2S,5R)-5-amino-2-methylpiperidine-1-carbonyl)-7-methoxy-1-methyl-1H-benzo[d]imidazol-2-yl)-1-(cyclopropylmethyl)-1H-pyrrolo[2,3-b]pyridin-6-yl)isoindolin-1-one]
18 | 687 | COc1cc(C(=O)N2C[C@H](N)CC[C@@H]2C)cc2nc(-c3cc4ccc(-c5cccnc5N5CCCC5)nc4n3CC3CC3)n(C)c12 [Example 263, ((2S,5R)-5-amino-2-methylpiperidin-1-yl)(2-(1-(cyclopropylmethyl)-6-(2-(pyrrolidin-1-yl)pyridin-3-yl)-1H-pyrrolo[2,3-b]pyridin-2-yl)-7-methoxy-1-methyl-1-benzo[d]imidazol-5-yl)methanone]
19 | 269 | COc1cc(C(=O)N2C[C@H](N)CC[C@@H]2C)cc2nc(-c3cc4ccc(-c5cccnc5S(C)(=O)=O)nc4n3CC3CC3)n(C)c12 [Example 265, ((2S,5R)-5-amino-2-methylpiperidin-1-yl)(2-(1-(cyclopropylmethyl)-6-(2-(methylsulfonyl)pyridin-3-yl)-1H-pyrrolo[2,3-b]pyridin-2-yl)-7-methoxy-1-methyl-1H-benzo[d]imidazol-5-yl)methanone]
20 | 138 | COc1cc(C(=O)N2C[C@H](N)CC[C@@H]2C)cc2nc(-c3cc4ccc(-c5cccnc5-c5cncs5)nc4n3CC3CC3)n(C)c12 [Example 267, ((2S,5R)-5-amino-2-methylpiperidin-1-yl)(2-(1-(cyclopropylmethyl)-6-(2-(thiazol-5-yl)pyridin-3-yl)-1H-pyrrolo[2,3-b]pyridin-2-yl)-7-methoxy-1-methyl-1H-benzo[d]imidazol-5-yl)methanone]
21 | 2330 | COc1cc(C(=O)N2C[C@H](N)CC[C@@H]2C)cc2nc(-c3cc4ccc(-c5c(C)ccc6[nH]ncc56)nc4n3CC3CC3)n(C)c12 [Example 273, ((2S,5R)-5-amino-2-methylpiperidin-1-yl)(2-(1-(cyclopropylmethyl)-6-(5-methyl-1H-indazol-4-yl)-1H-pyrrolo[2,3-b]pyridin-2-yl)-7-methoxy-1-methyl-1H-benzo[d]imidazol-5-yl)methanone]
